Data reported in patent publication US20250276983A1, “COMPOUNDS AND METHODS FOR MODULATING HER2” (IAMBIC THERAPEUTICS, INC., priority 2022, published 2025).
Like-named read-outs stand apart in the source and are kept apart here.

Tests used:
wtERBB2 = wtERBB2 (Homo sapiens (Human), UniProt P04626); test: HotSpot radiometric kinase activity assay, wtERBB2; assay type: biochemical; settings: 30 nM wtERBB2, 10 μM 33P-ATP, 20 min preincubation, 2 hours, read-out: HER2 WT IC50
Procedure: (§1) The purpose of the wtERBB2, ERBB2-A775_G776insYVMA (ERBB2YVMA), wtEGFR biochemical assay was to evaluate the inhibition (% inhibition and IC50 values) of the small molecule inhibitors by using the “HotSpot” radiometric kinase activity assay. HotSpot assays monitor the […] of kinase substrate by the radioactive gamma phosphate of adenosine triphosphate (33P-ATP) during biochemical reactions. HotSpot assays was performed in steps upon completion of the kinase reaction: deposition of a reaction mixture aliquot onto P81 ion exchange paper, extensive washing of the aforementioned P81 paper using phosphoric acid to remove unbound radiolabeled 33P-ATP from the P81 paper, and finally visualization and quantification of the dried P81 paper utilizing a phosphoimager. […] Typical reaction solutions (10 μL final reaction volume) contained the following buffer conditions: 20 mM Hepes (pH 7.5), 10 mM MgCl2, 1 mM EGTA, 0.01% Brij35, 0.02 mg/mL BSA, 0.1 mM Na3VO4, 2 mM DTT, 1% DMSO. The assay was primed by preparing a fresh 0.2 mg/mL solution of pEY (Sigma Cat: P7244) substrate in the reaction buffer and supplementing that solution with […] of MnCl2 as substrate cofactor (Sigma Cat: M9522). The kinase of interest was then added to the solution at the appropriate concentration (30 nM wtERBB2 from, or 20 nM ERBB2YVMA, or 4 nM wtEGFR) and gently mixed prior to delivery of compound in 100% DMSO by acoustic dispensing (Beckman Echo550). Compound, Kinase, and substrate were allowed to incubate for 20 min at room temperature prior to the initiation of the reaction by addition of 33P-ATP (PerkinElmer Cat: NEG602, final conc 10 μM). […] IC50 determinations were made from a plot of kinase activity as a function of inhibitor concentration fit to the 4-parameter IC50 equation with the enzyme concentration held constant using GraphPad Prism (San Diego).

wtEGFR = wtEGFR (Homo sapiens (Human), UniProt P00533); test: HotSpot radiometric kinase activity assay, wtEGFR; assay type: biochemical; settings: 4 nM wtEGFR, 10 μM 33P-ATP, 20 min preincubation, 2 hours, read-out: EGFR WT IC50
Procedure: as §1

BaF3_HER2YVMA cells = test: Cell growth inhibition assay, BaF3_HER2YVMA; assay type: cell-based; settings: 72 h, read-out: HER2-YVMA IC50 (nM), cell growth inhibition
BaF3_HER2WT cells = test: Cell growth inhibition assay, BaF3_HER2WT; assay type: cell-based; settings: 72 h, 3 days treatment, CellTiterGlo 2.0, read-out: HER2 WT IC50 (nM), cell growth inhibition
BaF3_EGFRWT cells = test: Cell growth inhibition assay, BaF3_EGFRWT; assay type: cell-based; settings: 72 h, 80 ng/mL recombinant human EGF, 3 days treatment, CellTiterGlo 2.0, read-out: EGFR WT IC50 (nM), cell growth inhibition
[1] = BaF3_HER2YVMA cells, 3 days treatment, CellTiterGlo 2.0

Sequence of wtERBB2 (P04626 23-1255): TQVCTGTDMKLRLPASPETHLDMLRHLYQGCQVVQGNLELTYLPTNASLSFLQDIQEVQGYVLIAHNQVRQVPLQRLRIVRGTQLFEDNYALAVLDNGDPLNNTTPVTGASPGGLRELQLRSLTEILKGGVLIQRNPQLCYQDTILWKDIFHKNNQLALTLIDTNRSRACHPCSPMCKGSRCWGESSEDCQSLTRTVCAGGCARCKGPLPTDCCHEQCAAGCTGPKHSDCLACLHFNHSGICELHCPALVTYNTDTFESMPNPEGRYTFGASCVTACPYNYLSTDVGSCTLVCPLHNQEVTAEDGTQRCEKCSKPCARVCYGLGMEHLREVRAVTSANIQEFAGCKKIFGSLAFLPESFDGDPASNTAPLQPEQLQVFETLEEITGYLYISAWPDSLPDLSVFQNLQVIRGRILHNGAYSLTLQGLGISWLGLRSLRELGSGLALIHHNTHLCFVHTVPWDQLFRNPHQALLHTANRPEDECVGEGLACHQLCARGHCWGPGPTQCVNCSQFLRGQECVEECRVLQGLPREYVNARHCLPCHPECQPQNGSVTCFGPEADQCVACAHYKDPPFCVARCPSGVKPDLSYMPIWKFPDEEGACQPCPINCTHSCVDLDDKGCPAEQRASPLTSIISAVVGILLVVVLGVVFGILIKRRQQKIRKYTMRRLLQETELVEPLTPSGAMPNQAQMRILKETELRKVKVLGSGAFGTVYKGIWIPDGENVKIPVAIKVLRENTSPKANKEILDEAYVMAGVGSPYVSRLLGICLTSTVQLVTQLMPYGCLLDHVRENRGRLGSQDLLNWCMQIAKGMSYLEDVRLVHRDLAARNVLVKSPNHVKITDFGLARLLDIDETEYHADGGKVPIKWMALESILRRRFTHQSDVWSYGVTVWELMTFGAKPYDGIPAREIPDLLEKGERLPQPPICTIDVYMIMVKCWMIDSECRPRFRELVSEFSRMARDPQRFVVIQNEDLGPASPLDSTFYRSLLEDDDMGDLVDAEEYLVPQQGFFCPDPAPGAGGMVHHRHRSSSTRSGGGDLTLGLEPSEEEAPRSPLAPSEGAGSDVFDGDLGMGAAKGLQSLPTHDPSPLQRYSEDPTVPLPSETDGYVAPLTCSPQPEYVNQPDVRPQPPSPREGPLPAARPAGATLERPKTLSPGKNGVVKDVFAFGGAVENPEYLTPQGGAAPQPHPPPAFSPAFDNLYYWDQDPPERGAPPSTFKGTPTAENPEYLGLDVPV
Sequence of wtEGFR (P00533 25-1210): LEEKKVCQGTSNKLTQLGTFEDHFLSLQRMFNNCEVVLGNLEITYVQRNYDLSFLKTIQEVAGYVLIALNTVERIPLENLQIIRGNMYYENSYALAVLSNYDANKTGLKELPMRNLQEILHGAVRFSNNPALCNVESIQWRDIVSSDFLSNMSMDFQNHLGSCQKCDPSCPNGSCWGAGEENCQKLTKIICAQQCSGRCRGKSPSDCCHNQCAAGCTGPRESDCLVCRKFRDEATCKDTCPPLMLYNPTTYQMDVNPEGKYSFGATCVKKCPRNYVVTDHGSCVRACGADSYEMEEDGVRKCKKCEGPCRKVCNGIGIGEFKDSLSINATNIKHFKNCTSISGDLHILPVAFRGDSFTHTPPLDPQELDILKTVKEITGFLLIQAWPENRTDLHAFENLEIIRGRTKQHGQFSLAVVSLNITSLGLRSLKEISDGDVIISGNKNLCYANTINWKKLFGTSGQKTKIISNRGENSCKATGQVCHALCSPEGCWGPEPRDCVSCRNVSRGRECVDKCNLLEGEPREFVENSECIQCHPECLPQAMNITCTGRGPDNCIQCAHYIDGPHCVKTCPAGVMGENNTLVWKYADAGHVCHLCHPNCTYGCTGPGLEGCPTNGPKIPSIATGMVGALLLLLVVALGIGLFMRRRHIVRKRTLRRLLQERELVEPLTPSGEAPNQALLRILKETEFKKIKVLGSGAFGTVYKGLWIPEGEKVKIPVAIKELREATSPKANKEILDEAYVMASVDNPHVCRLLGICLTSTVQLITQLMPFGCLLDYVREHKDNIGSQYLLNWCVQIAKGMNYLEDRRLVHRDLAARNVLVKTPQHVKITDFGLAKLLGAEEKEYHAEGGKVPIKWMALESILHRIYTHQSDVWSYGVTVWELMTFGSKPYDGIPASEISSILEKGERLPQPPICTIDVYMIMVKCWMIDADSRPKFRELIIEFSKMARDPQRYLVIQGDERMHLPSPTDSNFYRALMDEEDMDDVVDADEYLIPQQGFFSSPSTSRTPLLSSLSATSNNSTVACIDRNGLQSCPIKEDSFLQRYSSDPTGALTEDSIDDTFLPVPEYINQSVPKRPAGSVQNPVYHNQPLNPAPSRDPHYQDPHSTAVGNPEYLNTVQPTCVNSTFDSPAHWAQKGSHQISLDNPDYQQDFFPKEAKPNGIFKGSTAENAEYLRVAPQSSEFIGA

Structure (SMILES) | IC50 (wtERBB2) | IC50 (wtEGFR) | IC50 (BaF3_HER2YVMA cells; [1]) | IC50 (BaF3_HER2WT cells) | IC50 (BaF3_EGFRWT cells) | IC50 (BaF3_HER2YVMA cells)
C=CC(=O)N1CC(n2cc(-c3ccn4ncnc(Nc5ccc(Oc6ccn7ncnc7c6)c(C)c5)c34)cn2)C1 [Example 2, 1-(3-(4-(4-((4-([1,2,4]triazolo[1,5-a]pyridin-7-yloxy)-3-methylphenyl)amino)pyrrolo[2,1-f][1,2,4]triazin-5-yl)-1H-pyrazol-1-yl)azetidin-1-yl)prop-2-en-1-one] | < 0.2 µM | < 0.2 µM | < 200 nM | < 200 nM | 1500 to 5000 nM | –
Cc1cc(Nc2ncnn3ccc(C4CN(C(=O)/C=C/CN(C)C)C4)c23)ccc1Oc1ccn2ncnc2c1 [Example 1, (E)-1-(3-(4-((4-([1,2,4]triazolo[1,5-a]pyridin-7-yloxy)-3-methylphenyl)amino)pyrrolo[2,1-f][1,2,4]triazin-5-yl)azetidin-1-yl)-4-(dimethylamino)but-2-en-1-one] | < 0.2 µM | < 0.2 µM | < 200 nM | < 200 nM | 1500 to 5000 nM | –
Cc1cc(Nc2ncnn3ccc(C4CN(C(=O)/C=C/CN5CCCC5)C4)c23)ccc1Oc1ccn2ncnc2c1 [Example 97, (E)-1-(3-(4-((4-([1,2,4]triazolo[1,5-a]pyridin-7-yloxy)-3-methylphenyl)amino)pyrrolo[2,1-f][1,2,4]triazin-5-yl)azetidin-1-yl)-4-(pyrrolidin-1-yl)but-2-en-1-one] | < 0.2 µM | < 0.2 µM | – | < 200 nM | 1500 to 5000 nM | < 200 nM
C=CC(=O)N1CC(c2ccn(-c3ccn4ncnc(Nc5ccc(Oc6ccn7ncnc7c6)c(C)c5)c34)n2)C1 [Example 10, 1-(3-(1-(4-((4-([1,2,4]triazolo[1,5-a]pyridin-7-yloxy)-3-methylphenyl)amino)pyrrolo[2,1-f][1,2,4]triazin-5-yl)-1H-pyrazol-3-yl)azetidin-1-yl)prop-2-en-1-one] | < 0.2 µM | < 0.2 µM | 500 to 1500 nM | 200 to 500 nM | 1500 to 5000 nM | –
C=CC(=O)N1CCCN(c2ccn3ncnc(Nc4ccc(Oc5ccn6ncnc6c5)c(C)c4)c23)CC1 [Example 8, 1-(4-(4-((4-([1,2,4]triazolo[1,5-a]pyridin-7-yloxy)-3-methylphenyl)amino)pyrrolo[2,1-f][1,2,4]triazin-5-yl)-1,4-diazepan-1-yl)prop-2-en-1-one] | < 0.2 µM | < 0.2 µM | < 200 nM | < 200 nM | 500 to 1500 nM | –
C=CC(=O)N1CCC(c2ccn3ncnc(Nc4ccc(Oc5ccn6ncnc6c5)c(C)c4)c23)CC1 [Example 7, 1-(4-(4-((4-([1,2,4]triazolo[1,5-a]pyridin-7-yloxy)-3-methylphenyl)amino)pyrrolo[2,1-f][1,2,4]triazin-5-yl)piperidin-1-yl)prop-2-en-1-one] | < 0.2 µM | < 0.2 µM | < 200 nM | < 200 nM | 200 to 500 nM | –
C=CC(=O)N1CCN(c2ccn3ncnc(Nc4ccc(Oc5ccn6ncnc6c5)c(C)c4)c23)CC1 [Example 6, 1-(4-(4-((4-([1,2,4]triazolo[1,5-a]pyridin-7-yloxy)-3-methylphenyl)amino)pyrrolo[2,1-f][1,2,4]triazin-5-yl)piperazin-1-yl)prop-2-en-1-one] | < 0.2 µM | < 0.2 µM | < 200 nM | < 200 nM | 500 to 1500 nM | –

More lines, main results first:

IC50 (wtERBB2) | IC50 (wtEGFR) | IC50 (BaF3_HER2YVMA cells; [1]) | IC50 (BaF3_HER2WT cells) | IC50 (BaF3_EGFRWT cells) | Structure (SMILES) | IC50 (BaF3_HER2YVMA cells)
< 0.2 µM | < 0.2 µM | 200 to 500 nM | < 200 nM | 1500 to 5000 nM | Cc1cc(Nc2ncnn3ccc(C4CCN(C(=O)/C=C/CN(C)C)C4)c23)ccc1Oc1ccn2ncnc2c1 (stereo not drawn) [Example 98, (E)-1-(3-(4-((4-([1,2,4]triazolo[1,5-a]pyridin-7-yloxy)-3-methylphenyl)amino)-pyrrolo-[2,1-f][1,2,4]triazin-5-yl)pyrrolidin-1-yl)-4-(dimethylamino)but-2-en-1-one] | –
< 0.2 µM | < 0.2 µM | < 200 nM | < 200 nM | 1500 to 5000 nM | Cc1cc(Nc2ncnn3ccc(C4CN(C(=O)/C=C/CN(C)C)C4)c23)ccc1Oc1ccc2c(c1)ncn2C [Example 101, (E)-4-(dimethylamino)-1-(3-(4-((3-methyl-4-((1-methyl-1H-benzo[d]imidazol-5-yl)oxy)phenyl)amino)pyrrolo[2,1-f][1,2,4]triazin-5-yl)azetidin-1-yl)but-2-en-1-one] | –
< 0.2 µM | < 0.2 µM | < 200 nM | < 200 nM | 1500 to 5000 nM | Cc1cc(Nc2ncnn3ccc(C4CN(C(=O)/C=C/CN5CCCCC5)C4)c23)ccc1Oc1ccn2ncnc2c1 [Example 94, (E)-1-(3-(4-((4-([1,2,4]triazolo[1,5-a]pyridin-7-yloxy)-3-methylphenyl)amino)pyrrolo[2,1-f][1,2,4]triazin-5-yl)azetidin-1-yl)-4-(piperidin-1-yl)but-2-en-1-one] | –
< 0.2 µM | < 0.2 µM | < 200 nM | < 200 nM | 1500 to 5000 nM | C=CC(=O)N1CCCC(c2ccn3ncnc(Nc4ccc(Oc5ccn6ncnc6c5)c(C)c4)c23)C1 (stereo not drawn) [Example 12, 1-(3-(4-((4-([1,2,4]triazolo[1,5-a]pyridin-7-yloxy)-3-methylphenyl)amino)pyrrolo[2,1-f][1,2,4]triazin-5-yl)piperidin-1-yl)prop-2-en-1-one] | –
< 0.2 µM | < 0.2 µM | < 200 nM | < 200 nM | 500 to 1500 nM | C=CC(=O)N1CCC(c2ccn3ncnc(Nc4ccc(Oc5ccc6c(c5)ncn6C)c(C)c4)c23)CC1 [Example 113, 1-(4-(4-((3-methyl-4-((1-methyl-1H-benzo[d]imidazol-5-yl)oxy)phenyl)amino)pyrrolo[2,1-f][1,2,4]triazin-5-yl)piperidin-1-yl)prop-2-en-1-one] | –
